The values below come from patent publication US20080280933A1, “BENZIMIDAZOLYL COMPOUNDS” (priority 2006, published 2008).

The first test deals with T1, mGluR2 receptor (metabotropic glutamate receptor 2) (Homo sapiens, UniProt Q14416).
T1 construct: expressed in transfected cells
T1 sequence (Q14416 19-872, species assumed): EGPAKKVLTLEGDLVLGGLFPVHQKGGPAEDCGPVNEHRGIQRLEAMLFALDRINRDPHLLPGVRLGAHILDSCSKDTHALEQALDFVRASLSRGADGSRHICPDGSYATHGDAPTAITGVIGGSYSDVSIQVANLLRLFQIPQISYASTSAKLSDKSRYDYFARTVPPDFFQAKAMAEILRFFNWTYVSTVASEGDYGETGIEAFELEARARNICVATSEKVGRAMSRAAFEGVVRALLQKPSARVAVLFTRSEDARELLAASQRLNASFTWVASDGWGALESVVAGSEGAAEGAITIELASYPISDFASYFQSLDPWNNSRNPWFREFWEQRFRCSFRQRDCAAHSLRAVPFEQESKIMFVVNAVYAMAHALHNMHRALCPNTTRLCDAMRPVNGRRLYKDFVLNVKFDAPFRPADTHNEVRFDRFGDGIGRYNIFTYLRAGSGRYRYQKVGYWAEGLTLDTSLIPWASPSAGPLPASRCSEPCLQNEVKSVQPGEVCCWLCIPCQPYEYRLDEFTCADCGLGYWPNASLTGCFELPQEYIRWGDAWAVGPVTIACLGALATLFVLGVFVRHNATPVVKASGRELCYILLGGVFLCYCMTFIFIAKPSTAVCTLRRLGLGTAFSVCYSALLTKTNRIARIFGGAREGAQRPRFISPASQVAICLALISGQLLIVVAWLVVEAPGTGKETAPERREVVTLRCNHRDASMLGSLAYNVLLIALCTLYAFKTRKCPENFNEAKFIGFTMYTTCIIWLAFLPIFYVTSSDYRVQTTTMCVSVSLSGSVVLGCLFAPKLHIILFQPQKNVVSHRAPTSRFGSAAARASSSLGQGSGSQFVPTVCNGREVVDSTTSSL
The test is described as follows: mGluR2 Potentiator Screen, FLIPR, EC10-EC20 glutamate challenge. It is filed as cell-based. Particulars: listed as 9; read-out: EC50. The procedure: Procedure for mGluR2 Potentiator Screen NLB Methods EC10-EC20 Challenge Cell Culture and Plating:
Cells used for this screen are HEK cells stably transfected with the mGluR2 receptor (metabotropic glutamate receptor 2) and the Gα15 G protein. Clones were identified by functional activity (FLIPR). Cells are grown in growth media containing: DMEM High Glucose with Glutamine and Na Pyruvate (GIBCO), 10% (v/v) Heat inactivate FBS (GIBCO) G418 500 ug/ml (from 50 mg/ml stock) (GIBCO) and Blasticidin 3 ug/ml (from 5 mg/ml stock made in H2O) (Invitrogen).
2 days before the assay cell are trypsinized with 0.25% trysin/EDTA (GIBCO), spun down at 1000 rpm for 5 minutes, resuspended in growth media and plated on polystyrene 384 well black wall/clear bottom poly-D-lysine coated plates at a density of approximately 18,000 cells/well in a volume of 50 μL per well. One day before the assay the growth media is removed from the plates by flicking and replaced with media containing DMEM High Glucose without Glutamine and Na Pyruvate (GIBCO) and 10% (v/v) dialyzed FBS (GIBCO). The reason for the removal of glutamine the day before the assay is to minimize the amount of glutamate that will be present during the assay, as endogenous glutarnate released from the cells can reduce the fluorescent response and interfere with the FLIPR screen.
FLIPR Methods and Data Analysis:
On the day of the assay, the FLIPR assay is performed using the following methods:
The pH is adjusted to 7.4 with 1M NaOH. Prepare a 2 mM (approx.) stock solution of Fluo-4.am (Molecular Probes) dye in DMSO −22 μl DMSO per 50 ug vial (440 μL per 1 mg vial). Make a 1 mM (approx.) flou-4, PA working solution per vial by adding 22 μl of 20% pluronic acid (PA) (Molecular Probes) in DMSO to each 50 ug vial (440 μL per 1 mg vial). Prepare a 250 mM Probenecid (Sigma) stock solution by dissolving 0.71 g into 5 ml 1N NaOH and 5 ml assay buffer (for each liter of assay wash buffer). Make 4 uM (approx.) dye incubation media by adding 2.50 ug vials per 11 ml DMEM high glucose without glutamine (220 ml per 1 mg vial). Add 110 μL probenecid stock per 11 ml (2.5 mM final [concentration]). To the dye media add 3 units/ml of glutamic-pyruvic transaminase (GPT, Sigma) and 3 mM Na Pyruvate. The assay has worked with dye concentrations from 2 uM to 8 uM dye as well. To the assay buffer from drug preparation, add 1.83 mls DMSO and 400 μL. 15.8% P104 (from New Leads biology) per liter for final concentrations of 0.18% DMSO and 0.006% P104. To the assay buffer for cell washing, add probenecid in the same manner and concentration that was used for the dye media.
Remove growth media from cell plates by flicking. Add 50 μl/well dye solution. Incubate 1 hour at 37° C. and 5% CO2. Remove dye solution and wash 3 times with assay buffer+probenecid (100 μl probenecid stock per 10 ml buffer), leaving 30 μL/well assay buffer. Wait at least 10-15 minutes. Compounds and agonist challenge additions are performed with the FLIPR. The in addition is for test compounds, which are added as 15 μL of 4× [concentration] of potentiator. The second 2nd addition is 15 μL of 4× [concentration] of agonist or challenge. This achieves 1× concentration of all compounds only after 2nd addition. The 1st and 2nd additions are performed separately using the FLIPR, which give 2 different data files. Compounds are pretreated at least 30 minutes before agonist addition.
Results are analyzed by dividing the peak fluorescent value of the FLIPR response by the […] to achieve a ratio response. The ratios are then analyzed by curve fitting programs. Since potent compounds can give an inverted U dose response curve (due to effects on endogenous glutamate by the potentiators) points are deleted at concentrations higher than the concentration that gives the maximum effect. Maximum values for dose response curves (forced fitting) are derived from standards on the plate.
Compound Preparation and Glutamate Challenge: […]
As usually defined, the EC50 is the concentration needed to bring the measured effect to its halfway point. On to `Cc1ccc2nc(CN3CCC(c4ccccc4F)CC3)n(C)c2c1` [Entry 279], for which the EC50 was 2170 nM.

Still in this test, the particulars now being: read-out: EC50.
For “2-(2-((4-(2-fluorophenyl)piperidin-1-yl)methyl)-1-methyl-1H-benzo[d]imidazol-5-yl)propan-2-ol [Entry 298]”, the EC50 turned out to be 2530 nM.
On the same count and under the same terms, as for “2-((4-(2-Fluorophenyl)piperidin-1-yl)methyl)-1-methyl-1H-benzo[d]imidazol-5-carboxamide [Entry 363]”, the figure is 5210 nM; as for “2-((4-(2-Fluorophenyl)piperidin-1-yl)methyl)-1-methyl-1H-benzo[d]imidazole-5-carbonitrile [Entry 272]”, 439 nM.
Same read-out and setting: the value for “2-((4-(2-Fluorophenyl)piperidin-1-yl)methyl)-1-methyl-6-phenyl-1H-benzo[d]imidazole [Entry 276]” was 3100 nM; that for “2-((4-(2-Fluorophenyl)piperidin-1-yl)methyl)-3-methyl-3H-benzo[d]imidazole-5-carbonitrile [Entry 275]” was 2620 nM.
“2-((4-(2-fluorophenyl)piperidin-1-yl)methyl)-6-methoxy-1-methyl-1H-benzo[d]imidazole [Entry 278]”: the EC50 is 1620 nM.
Same read-out and setting: as for “2-[4-(2-Methoxy-phenyl)-piperidin-1-ylmethyl]-1-methyl-1H-benzoimidazol-4-ylamine [Entry 264]”, the figure is 5210 nM.
The same measure, in the same setting: the value for “2-[4-(2-Methoxy-phenyl)-piperidin-1-ylmethyl]-1-methyl-1H-benzoimidazole-5-carboxylic acid [Entry 288]” was 569 nM; that for “2-{[Cis-4-(3,4-Difluoro-phenyl)-3-methyl-piperidin-1-yl]methyl}-1-methyl-1H-benzoimidazole [Entry 462]” was 1810 nM.
Still for that read-out and setting: the value for “4-Fluoro-2-((4-(2-Fluorophenyl)piperidin-1-yl)methyl)-1-methyl-1H-benzo[d]imidazole [Entry 325]” was 97.9 nM; that for “5-(2-Methoxy-phenyl)-1-(1-methyl-1H-benzoimidazol-2-ylmethyl)-azepan-2-one [Entry 291]” was 916 nM; that for `C[C@@H]1CN(Cc2nc3ccccc3n2C)CC[C@@H]1c1ccc(F)c(F)c1` (racemic) [Entry 462, 2-{[Cis-4-(3,4-Difluoro-phenyl)-3-methyl-piperidin-1-yl]methyl}-1-methyl-1H-benzoimidazole] was 241 nM.
With `COCCn1c(CN2CC[C@H](c3ccccc3OC)[C@H](C)C2)nc2ccccc21` (relative stereo) [compound 336], the EC50 was 2360 nM.
With `COc1ccccc1[C@H]1CCN(Cc2nc3ccccc3n2C)C[C@H]1C` (relative stereo) [compound 337], the EC50 was found to be 323 nM.
The same measure, in the same setting: as for `COc1ccccc1[C@H]1CCN(Cc2nc3ccccc3n2C2CC2)C[C@H]1C` (relative stereo) [compound 338], the figure is 1450 nM.
Still for that read-out and setting: as for `COc1ccccc1[C@H]1CCN(Cc2nc3ccccc3n2CCF)C[C@H]1C` (relative stereo) [compound 339], the figure is 604 nM; as for `C[C@@H]1CN(Cc2nc3ccccc3n2C)CC[C@@H]1c1ccc(C(F)(F)F)cc1` (relative stereo) [compound 404], 471 nM; as for `C[C@@H]1CN(Cc2nc3ccccc3n2C)CC[C@@H]1c1ccccc1F` (relative stereo) [compound 405], 124 nM.
Still for that read-out and setting: as for `C[C@@H]1CN(Cc2nc3ccccc3n2C)CC[C@@H]1c1ccc(F)c(Cl)c1` (relative stereo) [compound 456], the figure is 181 nM; as for `C[C@H]1C[C@@H](c2ccc(C(F)(F)F)cc2)CCN1Cc1nc2ccccc2n1C` (relative stereo) [compound 457], 454 nM; as for `COc1cc(C(F)(F)F)ccc1[C@H]1CCN(Cc2nc3ccccc3n2C)C[C@H]1C` (relative stereo) [compound 459], 128 nM.
Consider `C[C@@H]1CN(Cc2nc3ccccc3n2C)CC[C@@H]1c1ccc(Cl)cc1F` (relative stereo) [compound 461], for which the concentration giving a half-maximal response (EC50) was 30.3 nM.
The same measure, in the same setting: the value for `C[C@@H]1CN(Cc2nc3ccccc3n2C)CC[C@@H]1c1ccc(F)cc1F` (relative stereo) [compound 463] was 40.7 nM; that for `COc1cc(F)ccc1[C@H]1CCN(Cc2nc3ccccc3n2C)C[C@H]1C` (relative stereo) [compound 464] was 125 nM.
As for `C[C@@H]1CN(Cc2nc3ccccc3n2C)CC[C@@H]1c1ccc(C(F)(F)F)c(F)c1` (relative stereo) [compound 465], the EC50 turned out to be 375 nM.
`C[C@@H]1CN(Cc2nc3ccccc3n2C)CC[C@@H]1c1ccc(C(F)(F)F)cc1C(F)(F)F` (relative stereo) [compound 466]: the concentration for a half-maximal effect (EC50) stood at 161 nM.
The same measure, in the same setting: the value for `C[C@@H]1CN(Cc2nc3ccccc3n2C)CC[C@@H]1c1ccc(C(F)(F)F)cc1Cl` (relative stereo) [compound 467] was 53.1 nM.
Same read-out and setting: as for `C[C@@H]1CN(Cc2nc3ccccc3n2C)CC[C@@H]1c1ccc(Cl)cc1Cl` (relative stereo) [compound 468], the figure is 86.2 nM.
Same read-out and setting: as for `Cc1cc(Cl)ccc1[C@H]1CCN(Cc2nc3ccccc3n2C)C[C@H]1C` (relative stereo) [compound 469], the figure is above 351 nM.
Consider `C[C@@H]1CN(Cc2nc3ccccc3n2C)CC[C@@H]1c1ccc(F)c(F)c1` (single isomer, unassigned) [Entry 472, 2-{[Cis-4-(3,4-Difluoro-phenyl)-3-methyl-piperidin-1-yl]methyl}-1-methyl-1H-benzoimidazole], for which the EC50 is 152 nM.
The same measure, in the same setting: the value for `C[C@@H]1CN(Cc2nc3ccccc3n2C)CC[C@@H]1c1ccc(F)c(F)c1` (single isomer, unassigned) [Entry 473, 2-{[Cis-4-(3,4-Difluoro-phenyl)-3-methyl-piperidin-1-yl]methyl}-1-methyl-1H-benzoimidazole] was 1030 nM.
Still for that read-out and setting: the value for `CN1CC2(CCN(Cc3nc4ccccc4n3C)CC2)c2cc(Br)ccc21` [Entry 104, 5-Bromo-1-methyl-1'-[(1-methyl-1H-benzimidazole-2-yl)methyl]-1,2-dihydrospiro[indole-3,4'-piperidine]] was 1410 nM; that for `Cn1c(CN2CCC(c3ccccc3F)CC2)nc2cc(C#N)ccc21` [Entry 272, 2-((4-(2-Fluorophenyl)piperidin-1-yl)methyl)-1-methyl-1H-benzo[d]imidazole-5-carbonitrile] was 73 nM.
Same read-out and setting: as for `Cn1c(CN2CCC(c3ccccc3F)CC2)nc2ccc(C#N)cc21` [Entry 275, 2-((4-(2-Fluorophenyl)piperidin-1-yl)methyl)-3-methyl-3H-benzo[d]imidazole-5-carbonitrile], the figure is 211 nM; as for `Cn1c(CN2CCC(c3ccccc3F)CC2)nc2ccc(-c3ccccc3)cc21` [Entry 276, 2-((4-(2-Fluorophenyl)piperidin-1-yl)methyl)-1-methyl-6-phenyl-1H-benzo[d]imidazole], 204 nM.
Take `COc1ccc2nc(CN3CCC(c4ccccc4F)CC3)n(C)c2c1` [Entry 278, 2-((4-(2-fluorophenyl)piperidin-1-yl)methyl)-6-methoxy-1-methyl-1H-benzo[d]imidazole]: the EC50 turned out to be 46.6 nM.
Still for that read-out and setting: the value for `Cc1ccc2nc(CN3CCC(c4ccccc4F)CC3)n(C)c2c1` [Entry 279] was 327 nM; that for `COc1ccccc1C1CCN(Cc2nc3cc(C(=O)O)ccc3n2C)CC1` [Entry 288, 2-[4-(2-Methoxy-phenyl)-piperidin-1-ylmethyl]-1-methyl-1H-benzoimidazole-5-carboxylic acid] was 1680 nM.
